Measured values published in patent publication US11214803B2, “Modulators of YAP1 expression” (Ionis Pharmaceuticals, Inc., priority 2019, dated 2022).
Strand notation (5' to 3'): a small letter for the sugar, then the base; units joined by * are phosphorothioate-linked, units joined directly phosphodiester-linked; [ ] holds rarer units or linkages, { } end groups; capitals alone tell only the bases. k = constrained ethyl (cEt); [5mC] = 5-methylcytosine; d = 2'-deoxy (DNA)

Assays:
Yap1 mRNA [1] = assay: Yap1 mRNA levels in SNU449 xenograft tumors, alone and in combination with sorafenib (second Example 30); type: in vivo, human; details: SNU449 xenograft mice, oligonucleotide 50 mg/kg, sorafenib 30 mg/kg orally, tumors collected day 119 post implantation, relative to PBS
Method: Modified oligonucleotides described in the studies above were tested in a hepatocellular carcinoma SNU449 xenograft tumor model. In addition to testing the modified oligonucleotide by itself, combination therapy with sorafenib was also tested. A control oligonucleotide 792169, described herein above, was also tested.
Five million SNU449 cells in 30% matrigel were implanted subcutaneously into the fatpads of female NOD.Cg-Prkdcscid II2rgtmlWjl/SzJ mice (from Jackson Laboratory) at 4-6 weeks of age. 43 days post implantation (when tumors had reached approximately 100 mm^3 in size), groups of eight mice each were administered with 50 mg/kg modified oligonucleotide daily for 10 days (loading dose), following which they were administered with 50 mg/kg modified oligonucleotide four times a week for one week, following which they were dosed with 50 mg/kg modified oligonucleotide thrice weekly until the end of the study. […] Animals were sacrificed, and tumors were collected on day 119 post implantation.
(§1) Yap1 mRNA knockdown in tumors was measured by RT-qPCR as previously described using the Human Yap1 primer-probe set RTS4814. Yap1 mRNA levels were normalized to actin-beta content, as measured by primer probe set RTS5002. Results are presented in the tables below as percent control of the amount of Yap1 mRNA relative to PBS treated animals (% control).

Yap1 mRNA [2] = assay: Yap1 mRNA in SNU449 cells in combination with sorafenib (Example 48); type: cell-based, human; details: free uptake, approximately 48 hours
Method: Modified oligonucleotides described in the studies above were tested at various doses in hepatocellular carcinoma cell line SNU449. ION No. 792169, described herein above, was used as a control modified oligonucleotide. ION No. 715487 was used to target Yap1 RNA. […] After approximately 48 hours, Yap1 mRNA levels were measured.
as §1, with “cells” for “animals”

Yap1 mRNA [3] = assay: Dose-dependent inhibition of human Yap1 in A-431 cells (Example 7, 10,000 cells per well, RTS36584); type: cell-based; details: free uptake
How it was run: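 Yap1 mRNA was expressed as percent of untreated control after normalization to total RNA (RIBOGREEN), and IC50 was derived by log/linear linear regression. The read-out used primer-probe set RTS36584 roughly 48 hours after free-uptake dosing of oligonucleotides into A-431 cells (10,000 cells/well).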

Yap1 mRNA [4] = assay: Antisense inhibition of human Yap1 in A-431 cells by cEt gapmers, single dose (Example 3, RTS36584); type: cell-based
How it was run: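 Human epidermoid A-431 cells take up gapmer (2,000 nM, free uptake, ~48 h); Yap1 transcript is then assayed by qRT-PCR with RiboGreen normalization and reported relative to untreated cells. Gapmers carry cEt-modified wings, phosphorothioate linkages and 5-methylcytosine throughout.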

[5] = Tolerability in Sprague-Dawley rats, plasma chemistry markers (Example 20); type: in vivo; details: male Sprague-Dawley rats, 50 mg/kg s.c. weekly for 6 weeks (7 doses), 48 hours after last dose
Method: Sprague-Dawley rats are a multipurpose model used for safety and efficacy evaluations. The rats were treated with Ionis modified oligonucleotides from the studies described in the Examples above and evaluated for changes in the levels of various plasma chemistry markers.

[6] = oligonucleotide at 0.04 uM, sorafenib 0 uM
[7] = oligonucleotide at 0.04 uM, sorafenib 0.37 uM
[8] = oligonucleotide at 0.04 uM, sorafenib 3.33 uM
[9] = oligonucleotide at 0.04 uM, sorafenib 10 uM
[10] = oligonucleotide at 0.04 uM, sorafenib […]
[11] = oligonucleotide at 0.2 uM, sorafenib 0 uM
[12] = oligonucleotide at 0.2 uM, sorafenib 0.37 uM
[13] = oligonucleotide at 0.2 uM, sorafenib 3.33 uM
[14] = oligonucleotide at 0.2 uM, sorafenib 10 uM
[15] = oligonucleotide at 0.2 uM, sorafenib […]
[16] = oligonucleotide at 1 uM, sorafenib 0 uM
[17] = oligonucleotide at 1 uM, sorafenib 0.37 uM
[18] = oligonucleotide at 1 uM, sorafenib 3.33 uM
[19] = oligonucleotide at 1 uM, sorafenib 10 uM
[20] = oligonucleotide at 1 uM, sorafenib […]
[21] = oligonucleotide at 5 uM, sorafenib 0 uM
[22] = oligonucleotide at 5 uM, sorafenib 0.37 uM
[23] = oligonucleotide at 5 uM, sorafenib 3.33 uM
[24] = oligonucleotide at 5 uM, sorafenib 10 uM
[25] = oligonucleotide at 5 uM, sorafenib […]

Substance | Yap1 mRNA levels in tumors (Yap1 mRNA [1]) [% control] | YAP1 mRNA (Yap1 mRNA [2]; [6]) [% control] | YAP1 mRNA (Yap1 mRNA [2]; [7]) [% control] | YAP1 mRNA (Yap1 mRNA [2]; [8]) [% control] | YAP1 mRNA (Yap1 mRNA [2]; [9]) [% control] | YAP1 mRNA (Yap1 mRNA [2]; [10]) [% control] | YAP1 mRNA (Yap1 mRNA [2]; [11]) [% control] | YAP1 mRNA (Yap1 mRNA [2]; [12]) [% control] | YAP1 mRNA (Yap1 mRNA [2]; [13]) [% control] | YAP1 mRNA (Yap1 mRNA [2]; [14]) [% control] | YAP1 mRNA (Yap1 mRNA [2]; [15]) [% control] | YAP1 mRNA (Yap1 mRNA [2]; [16]) [% control] | YAP1 mRNA (Yap1 mRNA [2]; [17]) [% control] | YAP1 mRNA (Yap1 mRNA [2]; [18]) [% control] | YAP1 mRNA (Yap1 mRNA [2]; [19]) [% control] | YAP1 mRNA (Yap1 mRNA [2]; [20]) [% control] | YAP1 mRNA (Yap1 mRNA [2]; [21]) [% control] | YAP1 mRNA (Yap1 mRNA [2]; [22]) [% control] | YAP1 mRNA (Yap1 mRNA [2]; [23]) [% control] | YAP1 mRNA (Yap1 mRNA [2]; [24]) [% control] | also measured
1198440 (AAGTGTATGTCAGAAG; cEt, 2'-MOE, 5-methylcytosine, phosphorothioate modifications, further chemistry not given here) [compound 1198440] | 34 |  |  |  |  |  |  |  |  |  |  |  |  |  |  |  |  |  |  |  | 
CGCCGATAAGGTACAC (cEt gapmer, phosphorothioate backbone, further chemistry not given here) [ION 792169, reference compound] | 90 | 115 | 97 | 99 | 102 | 100 | 113 | 96 | 91 | 94 | 97 | 103 | 99 | 92 | 93 | 93 | 103 | 104 | 97 | 97 | YAP1 mRNA (Yap1 mRNA [2]; [25]): 95 % control
958499 (ATTAGAGTATGTGGCA; 3-10-3 cEt gapmer, further chemistry not given here) [compound 958499] |  |  |  |  |  |  |  |  |  |  |  |  |  |  |  |  |  |  |  |  | Yap1 mRNA, % UTC (Yap1 mRNA [3]; Table 61, 15.6 nM, A-431 cells 10,000 cells per well, 48 hours): 54 % UTC; Yap1 mRNA, % UTC (Yap1 mRNA [3]; Table 61, 62.5 nM, A-431 cells 10,000 cells per well, 48 hours): 12 % UTC; Yap1 mRNA, % UTC (Yap1 mRNA [3]; Table 61, 4000.00 nM, A-431 cells 10,000 cells per well, 48 hours): 1 % UTC; IC50 (Yap1 mRNA [3]; Table 61, A-431 cells 10,000 cells per well): < 0.01 µM; YAP1 (% UTC) (Yap1 mRNA [4]; Table 26, Yap1 mRNA by 3-10-3 cEt gapmers targeting SEQ ID NO.: 1, and 2, percent of untreated control): 1 % UTC; YAP1 (% UTC) (Yap1 mRNA [4]; Table 27, Yap1 mRNA by 3-10-3 cEt gapmers targeting SEQ ID NO.: 1, and 2, percent of untreated control): 2 % UTC; YAP1 (% UTC) (Yap1 mRNA [4]; Table 28, Yap1 mRNA as percent of untreated control, 3-10-3 cEt gapmers targeting SEQ ID NO.: 1, and 2): 2 % UTC; YAP1 (% UTC) (Yap1 mRNA [4]; Table 29, Yap1 mRNA as percent of untreated control, 3-10-3 cEt gapmers targeting SEQ ID NO.: 1, and 2): 2 % UTC; YAP1 (% UTC) (Yap1 mRNA [4]; Table 34, Yap1 mRNA as percent of untreated control, 3-10-3 cEt gapmers targeting SEQ ID NO: 1 and 2, single dose): 1 % UTC; YAP1 (% UTC) (Yap1 mRNA [4]; Table 35, Yap1 mRNA as percent of untreated control, 3-10-3 cEt gapmers targeting SEQ ID NO: 1 and 2, single dose): 2 % UTC; ALB [5]: 2.78 g/dL; ALT [5]: 61 U/L; AST [5]: 109 U/L; BUN [5]: 24 mg/dL; TBIL [5]: 0.18 mg/dL
715487 (kA*kT*kT*dA*d[5mC]*dT*dT*d[5mC]*dA*dT*dA*dG*d[5mC]*kT*kT*kA) [compound 715487] |  | 98 | 97 | 83 | 78 | 77 | 54 | 51 | 45 | 46 | 44 | 30 | 23 | 21 | 20 | 22 | 9 | 8 | 7 | 8 | Yap1 mRNA, % UTC (Yap1 mRNA [3]; 15.6 nM, A-431 cells, 10,000 cells per well, approximately 48 hours): 77 % UTC; Yap1 mRNA, % UTC (Yap1 mRNA [3]; 62.5 nM, A-431 cells, 10,000 cells per well, approximately 48 hours): 44 % UTC; Yap1 mRNA, % UTC (Yap1 mRNA [3]; 4000.00 nM, A-431 cells, 10,000 cells per well, approximately 48 hours): 4 % UTC; IC50 (Yap1 mRNA [3]; A-431 cells, approximately 48 hours, linear regression on log/linear plot): 0.1 µM; YAP1 mRNA (Yap1 mRNA [2]; [25]): 7 % control
958499 (kA*kT*kT*dA*dG*dA*dG*dT*dA*dT*dG*dT*dG*kG*k[5mC]*kA) [Compound 958499] |  |  |  |  |  |  |  |  |  |  |  |  |  |  |  |  |  |  |  |  | YAP1 (% UTC) (Yap1 mRNA [4]; Table 12, A-431 cells, 5,000 cells per well, free uptake, 2,000 nM modified oligonucleotide, approx. 48 hours, RTS36584, normalized to RIBOGREEN, Yap1 mRNA relative to untreated control cells): 1 % UTC
1076453 (GTAATATTGCAATCTG; 3-10-3 cEt gapmer, further chemistry not given here) [compound 1076453] |  |  |  |  |  |  |  |  |  |  |  |  |  |  |  |  |  |  |  |  | ALB [5]: 3.14 g/dL; ALT [5]: 47 U/L; AST [5]: 77 U/L; BUN [5]: 23 mg/dL; TBIL [5]: 0.13 mg/dL
